Read-outs that look alike come from different tables or passages of the source.
Biological target: T1, human CB2R (Homo sapiens, UniProt P34972)
T1 construct: host or cells: CHO cells
Assay: CB2R mediated modulation of cAMP synthesis
Format: cell-based
Settings: for agonistic activity: found through the use of the above described assays
Method in brief: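 CHO cells expressing human CB2R were treated with compound for 30 min at 37 °C in buffer containing 1 mM IBMX, 0.25% BSA and 10 uM forskolin. cAMP was measured after lysis. EC50 was taken as 50% inhibition of forskolin-stimulated cAMP, with 100% defined by 1 uM CP55940, using a four-parameter logistic fit.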

T1 sequence (P34972 whole entry): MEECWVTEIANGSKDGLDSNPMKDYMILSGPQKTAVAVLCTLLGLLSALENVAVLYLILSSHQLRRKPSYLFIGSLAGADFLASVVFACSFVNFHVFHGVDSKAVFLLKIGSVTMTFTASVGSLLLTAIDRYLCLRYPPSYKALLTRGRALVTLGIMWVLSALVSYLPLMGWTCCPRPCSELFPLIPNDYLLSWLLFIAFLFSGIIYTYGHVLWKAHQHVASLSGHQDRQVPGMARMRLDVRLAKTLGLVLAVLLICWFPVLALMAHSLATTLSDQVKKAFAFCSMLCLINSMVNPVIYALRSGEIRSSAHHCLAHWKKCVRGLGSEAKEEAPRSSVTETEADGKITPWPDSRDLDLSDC

| SMILES | EC50 | agonistic activity | EC50 (CHO cells expressing human CB2R, inhibition of forskolin-stimulated cAMP synthesis, compounds having agonist activity, read-out: CB2 EC50) |
| --- | --- | --- | --- |
| CC(C)(C)c1cc(NC(=O)C2(S(=O)(=O)CC3CCOCC3)CCC2)on1 [1-(Tetrahydro-pyran-4-ylmethanesulfonyl)-cyclobutanecarboxylic acid (3-tert-butyl-isoxazol-5-yl)-amide] | 6.2 nM | agonistic activity | – |
| CC(C)(C(=O)Nc1cc(C(F)(F)F)ccn1)S(=O)(=O)C1CCCC1 [2-Cyclopentanesulfonyl-2-methyl-N-(4-trifluoromethyl-pyridin-2-yl)-propionamide] | – | agonistic activity | – |
| CC(C)(C)c1csc(NC(=O)C(C)(C)S(=O)(=O)C2CCOCC2)n1 [N-(4-tert-Butyl-thiazol-2-yl)-2-methyl-2-(tetrahydro-pyran-4-sulfonyl)-propionamide] | – | agonistic activity | 12.4 nM |
| CC(C)(C(=O)Nc1cnc2ccccc2c1)S(=O)(=O)CC1CCOCC1 [2-Methyl-N-quinolin-3-yl-2-(tetrahydro-pyran-4-ylmethanesulfonyl)-propionamide] | 86 nM | agonistic activity | – |
| CC(C)(C(=O)Nc1ccc(C(F)(F)F)cn1)S(=O)(=O)CC1CCNCC1 [2-Methyl-2-(piperidin-4-ylmethanesulfonyl)-N-(5-trifluoromethyl-pyridin-2-yl)-propionamide] | – | agonistic activity | – |
| CC(C)CCS(=O)(=O)C(C)(C)C(=O)Nc1cc(C(C)(C)C)on1 [N-(5-tert-Butyl-isoxazol-3-yl)-2-methyl-2-(3-methyl-butane-1-sulfonyl)-propionamide] | 0.2 nM | agonistic activity | – |
| CC(C)S(=O)(=O)C(C)(C)C(=O)Nc1ccc2ccccc2c1 [2-Methyl-N-naphthalen-2-yl-2-(propane-2-sulfonyl)-propionamide] | – | agonistic activity | – |
| CC(C)CCS(=O)(=O)C(C)(C)C(=O)Nc1cc(C(C)(C)C)nn1C [N-(5-tert-Butyl-2-methyl-2H-pyrazol-3-yl)-2-methyl-2-(3-methyl-butane-1-sulfonyl)-propionamide] | 15.4 nM | agonistic activity | – |
| CC(C)S(=O)(=O)C(C)(C)C(=O)Nc1nc(C(C)(C)C)cs1 [N-(4-tert-Butyl-thiazol-2-yl)-2-methyl-2-(propane-2-sulfonyl)-propionamide] | – | agonistic activity | – |
| Cn1nc(C(C)(C)C)cc1NC(=O)C(C)(C)S(=O)(=O)CC1CCOCC1 [N-(5-tert-Butyl-2-methyl-2H-pyrazol-3-yl)-2-methyl-2-(tetrahydro-pyran-4-ylmethanesulfonyl)-propionamide] | – | agonistic activity | – |
| CCS(=O)(=O)C(C)(C)C(=O)Nc1cc(C(C)(C)C)nn1C [N-(5-tert-Butyl-2-methyl-2H-pyrazol-3-yl)-2-ethanesulfonyl-2-methyl-propionamide] | – | agonistic activity | – |
| Cn1nc(C(C)(C)C)cc1NC(=O)C(C)(C)S(=O)(=O)C1CCCCCC1 [N-(5-tert-Butyl-2-methyl-2H-pyrazol-3-yl)-2-cycloheptanesulfonyl-2-methyl-propionamide] | 6.5 nM | agonistic activity | – |
| CC(C)(C(=O)Nc1nc(-c2ccccc2)cs1)S(=O)(=O)CC1CCOCC1 [2-Methyl-N-(4-phenyl-thiazol-2-yl)-2-(tetrahydro-pyran-4-ylmethanesulfonyl)-propionamide] | 7.1 nM | agonistic activity | – |
| CCCS(=O)(=O)C(C)(C)C(=O)Nc1cccc(C(C)(C)C)c1 [N-(3-tert-Butyl-phenyl)-2-methyl-2-(propane-1-sulfonyl)-propionamide] | – | agonistic activity | – |
| CC(C)(C)c1csc(NC(=O)C2(S(=O)(=O)C3CCCCC3)CCC2)n1 [1-Cyclohexanesulfonyl-cyclobutanecarboxylic acid (4-tert-butyl-thiazol-2-yl)-amide] | 11.7 nM | agonistic activity | – |
| CC(=O)N1CCCC(CS(=O)(=O)C(C)(C)C(=O)Nc2cc(C(C)(C)C)on2)C1 (stereo not drawn) [2-(1-Acetyl-piperidin-3-ylmethanesulfonyl)-N-(5-tert-butyl-isoxazol-3-yl)-2-methyl-propionamide] | – | agonistic activity | – |
| Cn1nc(-c2ccccc2)cc1NC(=O)C(C)(C)S(=O)(=O)CC1CCOCC1 [2-Methyl-N-(2-methyl-5-phenyl-2H-pyrazol-3-yl)-2-(tetrahydro-pyran-4-ylmethanesulfonyl)-propionamide] | – | agonistic activity | – |
| CC(C)(C(=O)Nc1ccc(C(F)(F)F)cn1)S(=O)(=O)C1CCCC1 [2-Cyclopentanesulfonyl-2-methyl-N-(5-trifluoromethyl-pyridin-2-yl)-propionamide] | – | agonistic activity | – |
| CC(C)(C)c1ccc(NC(=O)C(C)(C)S(=O)(=O)CC2CCOCC2)cc1 [N-(4-tert-Butyl-phenyl)-2-methyl-2-(tetrahydro-pyran-4-ylmethanesulfonyl)-propionamide] | 3.3 nM | agonistic activity | – |

| SMILES | EC50 | agonistic activity | EC50 (CHO cells expressing human CB2R, inhibition of forskolin-stimulated cAMP synthesis, compounds having agonist activity, read-out: CB2 EC50) |
| --- | --- | --- | --- |
| CCCS(=O)(=O)C(C)(C)C(=O)Nc1cc(CC(C)(C)C)no1 [N-[3-(2,2-Dimethyl-propyl)-isoxazol-5-yl]-2-methyl-2-(propane-1-sulfonyl)-propionamide] | – | agonistic activity | – |
| CC(C)(C)Cc1cc(NC(=O)C(C)(C)S(=O)(=O)CC2CCOCC2)on1 [N-[3-(2,2-Dimethyl-propyl)-isoxazol-5-yl]-2-methyl-2-(tetrahydro-pyran-4-ylmethanesulfonyl)-propionamide] | 74.3 nM | agonistic activity | – |
| CCCS(=O)(=O)C(C)(C)C(=O)Nc1nc(-c2ccccc2)c(C)s1 [2-Methyl-N-(5-methyl-4-phenyl-thiazol-2-yl)-2-(propane-1-sulfonyl)-propionamide] | 52.2 nM | agonistic activity | – |
| CC(C)S(=O)(=O)C(C)(C)C(=O)Nc1cnc2ccccc2c1 [2-Methyl-2-(propane-2-sulfonyl)-N-quinolin-3-yl-propionamide] | – | agonistic activity | – |
| Cn1nc(C(C)(C)C)cc1NC(=O)C(C)(C)S(=O)(=O)C(C)(C)C [N-(5-tert-Butyl-2-methyl-2H-pyrazol-3-yl)-2-methyl-2-(2-methyl-propane-2-sulfonyl)-propionamide] | – | agonistic activity | – |
| Cc1nc(NC(=O)C(C)(C)S(=O)(=O)CC2CCOCC2)sc1C(C)(C)C [N-(5-tert-Butyl-4-methyl-thiazol-2-yl)-2-methyl-2-(tetrahydro-pyran-4-ylmethanesulfonyl)-propionamide] | 0.2 nM | agonistic activity | – |
| CC(C)(C)c1cc(NC(=O)C(C)(C)S(=O)(=O)CC(F)(F)F)no1 [N-(5-tert-Butyl-isoxazol-3-yl)-2-methyl-2-(2,2,2-trifluoro-ethanesulfonyl)-propionamide] | – | agonistic activity | – |
| CC(C)C(C(=O)Nc1nc(C(C)(C)C)cs1)S(=O)(=O)C(C)C (stereo not drawn) [N-(4-tert-Butyl-thiazol-2-yl)-3-methyl-2-(propane-2-sulfonyl)-butyramide] | – | agonistic activity | – |
| Cn1nc(C(C)(C)C)cc1NC(=O)C(C)(C)S(=O)(=O)C[C@H]1CCC(=O)N1 [N-(5-tert-Butyl-2-methyl-2H-pyrazol-3-yl)-2-methyl-2-((R)-5-oxo-pyrrolidin-2-ylmethanesulfonyl)-propionamide] | – | agonistic activity | – |
| CC(C)(C(=O)Nc1ccc(C(F)(F)F)cn1)S(=O)(=O)CC1CC1 [2-Cyclopropylmethanesulfonyl-2-methyl-N-(5-trifluoromethyl-pyridin-2-yl)-propionamide] | – | agonistic activity | – |
| Cc1nc(NC(=O)C(C)(C)S(=O)(=O)C(C)(C)C)sc1C(C)(C)C [N-(5-tert-Butyl-4-methyl-thiazol-2-yl)-2-methyl-2-(2-methyl-propane-2-sulfonyl)-propionamide] | 10.7 nM | agonistic activity | – |
| CC(C)(C)c1cc(NC(=O)C(C)(C)S(=O)(=O)C2CCCCCC2)no1 [N-(5-tert-Butyl-isoxazol-3-yl)-2-cycloheptanesulfonyl-2-methyl-propionamide] | 0.1 nM | agonistic activity | – |
| CCCS(=O)(=O)C(C)(C)C(=O)Nc1cc(C(C)(C)C)no1 [N-(3-tert-Butyl-isoxazol-5-yl)-2-methyl-2-(propane-1-sulfonyl)-propionamide] | 89.7 nM | agonistic activity | – |
| Cn1nc(-c2ccccc2)cc1NC(=O)C(C)(C)S(=O)(=O)C1CCCC1 [2-Cyclopentanesulfonyl-2-methyl-N-(2-methyl-5-phenyl-2H-pyrazol-3-yl)-propionamide] | – | agonistic activity | – |
| CC(C)S(=O)(=O)C(C)(C)C(=O)Nc1cccc(C(F)(F)F)n1 [2-Methyl-2-(propane-2-sulfonyl)-N-(6-trifluoromethyl-pyridin-2-yl)-propionamide] | – | agonistic activity | – |
| CC(C)(C)c1cc(NC(=O)C(C)(C)S(=O)(=O)C(C)(C)C)no1 [N-(5-tert-Butyl-isoxazol-3-yl)-2-methyl-2-(2-methyl-propane-2-sulfonyl)-propionamide] | – | agonistic activity | – |
| CC(C)(C(=O)Nc1nc(C(F)(F)F)cs1)S(=O)(=O)C1CCCC1 [2-Cyclopentanesulfonyl-2-methyl-N-(4-trifluoromethyl-thiazol-2-yl)-propionamide] | – | agonistic activity | – |
| CCC(C)S(=O)(=O)C(C)(C)C(=O)Nc1cc(C(C)(C)C)nn1C (stereo not drawn) [2-(Butane-2-sulfonyl)-N-(5-tert-butyl-2-methyl-2H-pyrazol-3-yl)-2-methyl-propionamide] | – | agonistic activity | – |
| CCCS(=O)(=O)C(C)(C)C(=O)Nc1nc(-c2ccccc2)c(CC)s1 [N-(5-Ethyl-4-phenyl-thiazol-2-yl)-2-methyl-2-(propane-1-sulfonyl)-propionamide] | 10.8 nM | agonistic activity | – |
